Earlier results as cited in US5989846A, “Assays to identify inducers of plant defense resistance” (Rutgers, The State University of New Jersey, priority 1995, dated 1999).

Target: T1, bovine catalase (Bos taurus, UniProt P00432)
T1 sequence (P00432 2-527 limits assumed): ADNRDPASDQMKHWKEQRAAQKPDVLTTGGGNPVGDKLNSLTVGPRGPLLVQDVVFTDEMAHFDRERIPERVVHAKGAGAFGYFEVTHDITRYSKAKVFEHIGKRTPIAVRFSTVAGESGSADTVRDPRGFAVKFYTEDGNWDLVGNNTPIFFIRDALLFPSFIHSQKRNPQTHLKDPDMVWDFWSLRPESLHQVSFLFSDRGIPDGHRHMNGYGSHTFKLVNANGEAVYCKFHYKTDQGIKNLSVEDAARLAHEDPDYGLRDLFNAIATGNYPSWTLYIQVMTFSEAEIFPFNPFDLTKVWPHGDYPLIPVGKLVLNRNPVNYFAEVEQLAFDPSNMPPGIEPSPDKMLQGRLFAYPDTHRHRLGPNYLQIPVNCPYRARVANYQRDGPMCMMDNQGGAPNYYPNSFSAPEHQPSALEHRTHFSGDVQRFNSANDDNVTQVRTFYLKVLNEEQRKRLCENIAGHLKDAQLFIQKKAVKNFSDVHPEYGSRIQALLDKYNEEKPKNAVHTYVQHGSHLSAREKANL
Conditions: Kirkman and Gaetani 1984; cited from earlier work

## NC(=O)C1=CN([C@@H]2O[C@H](COP(=O)(O)OP(=O)(O)OC[C@H]3O[C@@H](n4cnc5c(N)ncnc54)[C@H](OP(=O)(O)O)[C@@H]3O)[C@@H](O)[C@H]2O)C=CC1 [NADPH, nicotinamide adenine dinucleotide phosphate]
  Binding to bovine catalase: tightly binds

## NC(=O)C1=CN([C@@H]2O[C@H](COP(=O)(O)OP(=O)(O)OC[C@H]3O[C@@H](n4cnc5c(N)ncnc54)[C@H](O)[C@@H]3O)[C@@H](O)[C@H]2O)C=CC1 [NADH, nicotinamide adenine dinucleotide]
  Binding to bovine catalase: tightly binds
